Results published in ChEMBL document CHEMBL5375957, “Optimization of Novel α7 Nicotinic Acetylcholine Receptor Positive Allosteric Modulators and the Discovery of a Preclinical Development Candidate Molecule (RGH-560)” (J Med Chem, 2023).
≈ marks a conversion by molar mass, not a printed value. Calls of active or inactive are those of the source. The rule behind the calls is not given here.

What was measured:
[1] = Metabolic stability in Wistar rat liver microsome assessed as intrinsic clearance measured per mg of protein incubated for 40 mins; format: ADME; settings: liver microsomes, read-out: CLH
[2] = Kinetic solubility of compound at pH 7.4 incubated for 2 hrs by UV-HPLC analysis; format: physicochemical; settings: buffer, read-out: Kinetic_solubility
[3] = Metabolic stability in human liver microsome assessed as intrinsic clearance measured per mg of protein incubated for 40 mins; format: ADME; settings: liver microsomes, read-out: CLH
[4] = target: T1, Neuronal acetylcholine receptor subunit alpha-7 (Homo sapiens, UniProt P36544); experiment: Positive allosteric modulator activity at human alpha7 nAChR expressed in Flp-In HEK293 cells assessed as increase in calcium influx at 10 uM incubated for 10 mins by fluorescence based analysis relative to control; format: cell-based
T1 sequence (P36544 whole entry): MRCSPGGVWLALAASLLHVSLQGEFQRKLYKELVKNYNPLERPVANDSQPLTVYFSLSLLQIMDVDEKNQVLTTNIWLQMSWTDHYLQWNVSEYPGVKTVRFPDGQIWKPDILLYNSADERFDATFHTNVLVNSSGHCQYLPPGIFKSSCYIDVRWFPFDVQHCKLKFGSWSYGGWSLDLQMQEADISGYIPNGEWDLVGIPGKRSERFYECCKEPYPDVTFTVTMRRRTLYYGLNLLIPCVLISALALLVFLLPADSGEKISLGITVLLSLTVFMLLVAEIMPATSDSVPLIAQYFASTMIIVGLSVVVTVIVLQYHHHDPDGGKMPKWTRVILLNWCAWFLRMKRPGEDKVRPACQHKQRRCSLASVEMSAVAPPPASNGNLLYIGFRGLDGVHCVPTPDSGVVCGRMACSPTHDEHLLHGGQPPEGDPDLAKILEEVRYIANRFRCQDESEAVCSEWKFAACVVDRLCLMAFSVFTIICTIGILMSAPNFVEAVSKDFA

[5] = target: T1, Neuronal acetylcholine receptor subunit alpha-7; experiment: Positive allosteric modulator activity at human alpha7 nAChR expressed in Flp-In HEK293 cells assessed as increase in calcium influx incubated for 10 mins by fluorescence based analysis; format: cell-based
[6] = Metabolic stability in NMRI mouse liver microsome assessed as intrinsic clearance measured per mg of protein incubated for 40 mins; format: ADME; settings: liver microsomes, read-out: CLH
Mus musculus = experiment: Cognitive activity in scopolamine induced amnesia NMRI mouse model assessed as recognition index at 1 to 10 mg/kg, ip pretreated with compound for 30 mins followed by scopolamine induction by Y maze test; format: functional, organism-based; settings: dose 1-10 mg/kg
[7] = filed as positive allosteric modulator

Row | Structure (SMILES) | microsomal CLint [1] | solubility kinetic at 2 h [2] | microsomal CLint [3] | Emax [4] | EC50 [5] | Emax [4, 7] | microsomal CLint [6] | Activity (Mus musculus)
1 | Cn1cc(C#N)c2cc(CNC(=O)N3CC(COc4ccc(C(F)(F)F)cc4)C3)cnc21 | 38 µL/min/mg | 20.4 µM (≈ 9.05 µg/mL) | 49 µL/min/mg | 20% | – | – | – | –
2 | Cc1cc2cc(CNC(=O)N3CC4(CC(=O)c5cc(F)ccc5O4)C3)ccc2[nH]1 | 34 µL/min/mg | 36.4 µM (≈ 14.3 µg/mL) | 18 µL/min/mg | – | – | – | 51 µL/min/mg | –
3 | Cn1ccc2cc(CNC(=O)N3CC(COc4ccc(F)c(F)c4)C3)ccc21 | – | 1.2 µM (≈ 0.462 µg/mL) | 46 µL/min/mg | – | 150 nM | – | – | –
4 | Cn1ccc2cc(CNC(=O)N3CC(COc4ccc(F)c(C#N)c4)C3)ccc21 | – | 9.2 µM (≈ 3.61 µg/mL) | – | – | 590 nM | – | – | –
5 | Cc1cc2cc(CNC(=O)N3CC4(CC(=O)c5ccc(F)cc5O4)C3)ccc2[nH]1 | 25 µL/min/mg | 38.7 µM (≈ 15.2 µg/mL) | 14 µL/min/mg | – | 100 nM | – | 64 µL/min/mg | Active
6 | Cc1ccc(OCC2CN(C(=O)NCc3ccc4[nH]c5c(c4c3)CCCC5)C2)cc1 | – | 4.4 µM (≈ 1.78 µg/mL) | – | 1% | – | – | – | –
7 | O=C(NCc1ccc2[nH]ccc2c1)N1CC(COc2ccc(C(F)(F)F)cc2F)C1 | 39 µL/min/mg | 16.3 µM (≈ 6.87 µg/mL) | 24 µL/min/mg | – | 250 nM | – | 47 µL/min/mg | –
8 | Cn1ccc2cc(CNC(=O)N3CC(COc4ccc(Cl)cc4)C3)cnc21 | 53 µL/min/mg | 61.1 µM (≈ 23.5 µg/mL) | 34 µL/min/mg | – | 360 nM | – | 57 µL/min/mg | –
9 | Cn1cc(Cl)c2cc(CNC(=O)N3CC4(CC(=O)c5ccccc5O4)C3)ccc21 | – | 9.7 µM (≈ 3.98 µg/mL) | 128 µL/min/mg | – | – | – | – | –
10 | Cc1ccc(OCC2CN(C(=O)NCc3ccc4[nH]c(C)c(C)c4c3)C2)cc1 | – | 13.4 µM (≈ 5.06 µg/mL) | 323 µL/min/mg | – | 490 nM | – | – | –
11 | Cn1ccc2cc(CNC(=O)N3CC4(CC(=O)c5ccccc5O4)C3)ccc21 | 46 µL/min/mg | 51.5 µM (≈ 19.3 µg/mL) | 24 µL/min/mg | – | – | – | 52 µL/min/mg | Active
12 | Cn1ccc2cc(CNC(=O)N3CC(COc4ccc(Cl)c(Cl)c4)C3)ccc21 | – | 0.5 µM (≈ 0.209 µg/mL) | 61 µL/min/mg | – | 80 nM | – | – | –
13 | O=C1CC2(CN(C(=O)NCc3ccc4[nH]c(Cl)cc4c3)C2)Oc2ccccc21 | 176 µL/min/mg | 21.1 µM (≈ 8.35 µg/mL) | 22 µL/min/mg | – | 230 nM | – | 178 µL/min/mg | –
14 | Cn1cc(F)c2cc(CNC(=O)N3CC(COc4ccc(C(F)(F)F)nc4)C3)ccc21 | – | 0.1 µM (≈ 0.0436 µg/mL) | 107 µL/min/mg | – | 55 nM | – | – | –
15 | Cn1ccc2cc(CNC(=O)N3CC(COc4ccc(F)cc4F)C3)ccc21 | – | 45.5 µM (≈ 17.5 µg/mL) | 48 µL/min/mg | – | 270 nM | – | – | –
16 | Cc1cn(C)c2ncc(CNC(=O)N3CC(COc4ccc(C(F)(F)F)cc4)C3)cc12 | – | 14.2 µM (≈ 6.14 µg/mL) | – | – | 1200 nM | – | – | –
17 | Cc1cc2cc(CNC(=O)N3CC4(CC(=O)c5ccccc5O4)C3)ccc2[nH]1 | 52 µL/min/mg | 51.5 µM (≈ 19.3 µg/mL) | 11 µL/min/mg | – | 140 nM | – | 100 µL/min/mg | –
18 | Cn1ccc2cc(CNC(=O)N3CC(COc4ccc(F)cc4C#N)C3)ccc21 | – | 31 µM (≈ 12.2 µg/mL) | – | – | 2800 nM | – | – | –
19 | Cc1[nH]c2ccc(CNC(=O)N3CC4(CC(=O)c5ccccc5O4)C3)cc2c1Cl | – | 10 µM (≈ 4.1 µg/mL) | – | – | 460 nM | – | – | –
20 | O=C1CC2(CN(C(=O)NCc3ccc4[nH]ccc4c3)C2)Oc2ccccc21 | – | 87.1 µM (≈ 31.5 µg/mL) | – | – | – | 58% | – | –
21 | O=C(NCc1ccc2[nH]ccc2c1)N1CC(COc2ccc(C(F)(F)F)cn2)C1 | 63 µL/min/mg | 78.1 µM (≈ 31.6 µg/mL) | 37 µL/min/mg | – | 150 nM | – | 78 µL/min/mg | –
22 | O=C(NCc1ccc2[nH]ccc2c1)N1CC(COc2ccc(C(F)(F)F)nc2)C1 | – | 86.8 µM (≈ 35.1 µg/mL) | – | – | 1100 nM | – | – | –
23 | Cn1cc(Cl)c2cc(CNC(=O)N3CC(COc4ccc(C(F)(F)F)cc4)C3)cnc21 | – | 7.2 µM (≈ 3.26 µg/mL) | 97 µL/min/mg | – | 390 nM | – | – | –
24 | Cc1cc2cc(CNC(=O)N3CC4(CC(=O)c5cc(F)cc(F)c5O4)C3)ccc2[nH]1 | 80 µL/min/mg | 30.9 µM (≈ 12.7 µg/mL) | 8 µL/min/mg | – | – | – | 121 µL/min/mg | –

More lines, main results first:

Row | microsomal CLint [1] | solubility kinetic at 2 h [2] | microsomal CLint [3] | Emax [4] | EC50 [5] | Emax [4, 7] | microsomal CLint [6] | Structure (SMILES) | Activity (Mus musculus)
25 | – | 1.8 µM (≈ 0.753 µg/mL) | 27 µL/min/mg | – | 270 nM | – | – | Cn1ccc2cc(CNC(=O)N3CC(COc4ccc(C(F)(F)F)nc4)C3)ccc21 | –
26 | – | 0.2 µM (≈ 0.0863 µg/mL) | 28 µL/min/mg | – | – | 83% | – | CCn1ccc2cc(CNC(=O)N3CC(COc4ccc(C(F)(F)F)cc4)C3)ccc21 | –
27 | 48 µL/min/mg | 2.9 µM (≈ 1.3 µg/mL) | 43 µL/min/mg | 30% | – | – | – | COCc1cc2cc(CNC(=O)N3CC(COc4ccc(C(F)(F)F)cc4)C3)cnc2[nH]1 | –
28 | – | 5.3 µM (≈ 2.34 µg/mL) | 43 µL/min/mg | – | 2200 nM | – | – | Cn1cc(C#N)c2cc(CNC(=O)N3CC(COc4ccc(C(F)(F)F)cc4)C3)ccc21 | –
29 | 14 µL/min/mg | 5.1 µM (≈ 2.48 µg/mL) | 16 µL/min/mg | 1% | – | – | – | Cc1nnc(-c2cc3cc(CNC(=O)N4CC(COc5ccc(C(F)(F)F)cc5)C4)ccc3[nH]2)o1 | –
30 | – | 6.9 µM (≈ 3.08 µg/mL) | – | 0% | – | – | – | NC(=O)c1cc2cc(CNC(=O)N3CC(COc4ccc(C(F)(F)F)cc4)C3)ccc2[nH]1 | –
31 | 23 µL/min/mg | 12 µM (≈ 5.25 µg/mL) | 25 µL/min/mg | – | 500 nM | – | 43 µL/min/mg | O=C(NCc1ccc2[nH]cc(Cl)c2c1)N1CC(COc2ccc(C(F)(F)F)cc2)C1 | –
32 | – | 0.2 µM (≈ 0.0906 µg/mL) | – | 4% | – | – | – | Cn1c(Cl)cc2cc(CNC(=O)N3CC(COc4ccc(C(F)(F)F)cc4)C3)cnc21 | –
33 | – | 0.6 µM (≈ 0.291 µg/mL) | – | 3% | – | – | – | O=C(NCc1ccc2c(ccn2CC(F)(F)F)c1)N1CC(COc2ccc(C(F)(F)F)cc2)C1 | –
34 | – | 2.4 µM (≈ 1.06 µg/mL) | – | 15% | – | – | – | Cn1c(C#N)cc2cc(CNC(=O)N3CC(COc4ccc(C(F)(F)F)cc4)C3)ccc21 | –
35 | – | 0.2 µM (≈ 0.0904 µg/mL) | – | 7% | – | – | – | Cn1c(Cl)cc2cc(CNC(=O)N3CC(COc4ccc(C(F)(F)F)cc4)C3)ccc21 | –
36 | – | 49.9 µM (≈ 20.2 µg/mL) | – | – | 3100 nM | – | – | O=C(NCc1cnc2[nH]ccc2c1)N1CC(COc2ccc(C(F)(F)F)cc2)C1 | –
37 | – | 0.9 µM (≈ 0.401 µg/mL) | – | 1% | – | – | – | CC(C)n1ccc2cc(CNC(=O)N3CC(COc4ccc(C(F)(F)F)cc4)C3)ccc21 | –
38 | 23 µL/min/mg | 41 µM (≈ 18.6 µg/mL) | 27 µL/min/mg | – | 220 nM | – | – | O=C(NCc1ccc2[nH]c(C(F)F)cc2c1)N1CC(COc2ccc(C(F)(F)F)cc2)C1 | –
39 | 96 µL/min/mg | < 0.1 µM | 30 µL/min/mg | – | 200 nM | – | 140 µL/min/mg | Cn1cc(Cl)c2cc(CNC(=O)N3CC(COc4ccc(C(F)(F)F)cc4)C3)ccc21 | –
40 | – | 0.6 µM (≈ 0.259 µg/mL) | 54 µL/min/mg | – | 300 nM | – | – | Cc1cc2cc(CNC(=O)N3CC(COc4ccc(C(F)(F)F)cc4)C3)cnc2n1C | –
41 | – | 0.3 µM (≈ 0.138 µg/mL) | – | 0% | – | – | – | Cn1c(C2CC2)cc2cc(CNC(=O)N3CC(COc4ccc(C(F)(F)F)cc4)C3)cnc21 | –
42 | 34 µL/min/mg | 2 µM (≈ 0.835 µg/mL) | 29 µL/min/mg | – | 15 nM | – | 94 µL/min/mg | Cc1cc2cc(CNC(=O)N3CC(COc4ccc(C(F)(F)F)cc4)C3)ccc2[nH]1 | –
43 | – | 0.9 µM (≈ 0.377 µg/mL) | 61 µL/min/mg | – | 40 nM | – | – | Cn1ccc2cc(CNC(=O)N3CC(COc4ccc(C(F)(F)F)cn4)C3)ccc21 | –
44 | – | 0.2 µM (≈ 0.0871 µg/mL) | – | – | 45 nM | – | – | Cn1ccc2cc(CNC(=O)N3CC(COc4ccc(C(F)(F)F)c(F)c4)C3)ccc21 | –
45 | – | 0.1 µM (≈ 0.0476 µg/mL) | – | 0% | – | – | – | COCCc1cc2cc(CNC(=O)N3CC(COc4ccc(C(F)(F)F)cc4)C3)ccc2n1C | –
46 | – | 4.5 µM (≈ 1.97 µg/mL) | 29 µL/min/mg | – | 260 nM | – | – | O=C(NCc1cnc2[nH]c(Cl)cc2c1)N1CC(COc2ccc(C(F)(F)F)cc2)C1 | –
47 | 56 µL/min/mg | 1.9 µM (≈ 0.843 µg/mL) | 25 µL/min/mg | 3% | – | – | – | O=C(NCc1ccc2[nH]c(C3CC3)cc2c1)N1CC(COc2ccc(C(F)(F)F)cc2)C1 | –
48 | – | – | 41 µL/min/mg | – | 70 nM | – | – | Cc1cc2cc(CNC(=O)N3CC(COc4ccc(C(F)(F)F)cc4)C3)ccc2n1C | –
